Test results published in article PMC10076643, “Design, synthesis and anticancer activity studies of 3-(coumarin-3-yl)-acrolein derivatives: Evidenced by integrating network pharmacology and vitro assay” (Frontiers in Pharmacology, 2023).

Columns and labels:
[1] = test system: LO2 (human normal hepatocytes); test: MTT antiproliferative assay, LO2 normal cells; assay type: cell-based; conditions: Hepatocyte, 72 h
Source text: (§1) All the synthesized compounds were screened for in vitro antiproliferative activity against four human cancer cell lines A549 (human lung cancer cell line), KB (human oral epidermoid carcinoma cell line), Hela (human cervical carcinoma cell line), MCF-7 (human breast cancer cell line) and two human normal cell lines HUVEC (human umbilical vein endothelial cell) and LO2 (human normal hepatocytes) through the 3-(4,5-dimethyl-2-thiazolyl)-2,5-diphenyl-2-H-tetrazolium bromide (MTT) assay.
(§2) Non-small-cell lung cancer (A549), oral epidermoid carcinoma (KB), cervical cancer (Hela) and breast cancer (MCF-7) cells were purchased from the American Type Culture Collection (ATCC, America). Human umbilical vein endothelial cell (HUVEC) and human normal hepatocytes (LO2) cells were provided by Guangzhou Medical University (Guangzhou, China). A549 and KB cells were cultured in RMPI-1640 medium (Gibco, America). Hela, MCF-7 and LO2 cells were cultured in DMEM medium (Gibco, America). HUVEC cells were cultured in Ham’s F-12K medium (Gibco, America). All the mediums were supplemented with 10% fetal bovine serum (FBS) (BI, State of Israel), 100 U/mL penicillin and 100 μg/mL streptomycin (Gibco, America), and all the cells were incubated in a sterile incubator at 37°C in an environment of 5% CO2. The tested compounds were dissolved in dimethyl sulfoxide (DMSO) at a concentration of 10 mM, and then diluted into different concentration of solutions by culture medium. The final concentration of DMSO was <0.01% (v/v) in all drug treatment groups to avoid the toxicity in the biological system. Untreated cells were used as a blank control and 5-fluorouracil treated cells were used as a positive control.
(§3) The incubated tumor cells were planted into 96-well plates (4×10^3 cells/well). After 24 h, the cells were adherent to the wall and treated with the compound 6e in different concentrations (0.78, 1.56, 3.12, 6.25, 12.50, 25.00, and 50.00 μM) for 72 h. Afterwards, the medium was supplemented with 10 µL MTT solution. After 4 h, the culture medium was removed and 100 µL DMSO was added. The absorbance was determined at the wavelength of 540 nm and 655 nm using a microplate reader (BioTek Epoch, America). The results were collected from three independent experiments. The IC50 was then calculated by using GraphPad Prism Software (version 7.0) and non-linear regression (curve fit).

[2] = test system: A549 (human lung cancer cell line); test: MTT antiproliferative assay, A549; assay type: cell-based; conditions: for IC50: Homo sapiens, A549, MTT, 72 h
Source text: as §1, §2, §3

[3] = test system: Hela (human cervical carcinoma cell line); test: MTT antiproliferative assay, Hela; assay type: cell-based; conditions: 72 h
Source text: as §1, §2, §3

[4] = test system: HUVEC (human umbilical vein endothelial cell); test: MTT antiproliferative assay, HUVEC normal cells; assay type: cell-based; conditions: 72 h
Source text: as §1, §2, §3

[5] = test system: KB (human oral epidermoid carcinoma cell line); test: MTT antiproliferative assay, KB; assay type: cell-based; conditions: Homo sapiens; MTT, 72 h
Source text: as §1, §2, §3

[6] = test system: MCF-7 (human breast cancer cell line); test: MTT antiproliferative assay, MCF-7; assay type: cell-based; conditions: MCF7, 72 h
Source text: as §1, §2, §3

[7] = test system: various human cancer cells; set-up: method as in Yan et al., 2022; conditions: ref Yan et al., 2022; read-out: IC50 values, anti-proliferative activities towards various human cancer cells; cited from earlier work

O=c1[nH]cc(F)c(=O)[nH]1 [5-FU, 5-Fluorouracil, reference compound]
IC50 [1]: 10.68 ± 0.03 µM
IC50 [2]: 7.41 ± 0.09 µM
IC50 [3]: 1.37 ± 1.72 µM
IC50 [4]: 4.08 ± 0.06 µM
IC50 [5]: 5.75 ± 2.23 µM
IC50 [6]: 19.2 ± 3.29 µM

O=CC=C(Cl)c1cc2ccccc2oc1=O [Compound 5a, 3-Chloro-3-(2-oxo-2H-chromen-3-yl)acrylaldehyde]
IC50 [1]: 40.34 ± 0.02 µM
IC50 [2]: 7.97 ± 0.01 µM
IC50 [3]: 1.01 ± 0.28 µM
IC50 [4]: 22.8 ± 0.35 µM
melting point: 167 to 169 °C
IC50 [5]: 1.3 ± 0.02 µM
IC50 [6]: 3.55 ± 0.17 µM

O=CC=C(Cl)c1cc2ccc(O)cc2oc1=O [Compound 5b, 3-Chloro-3-(7-hydroxy-2-oxo-2H-chromen-3-yl)acrylaldehyde]
IC50 [1]: > 100 µM
IC50 [2]: > 100 µM
IC50 [3]: > 100 µM
IC50 [4]: > 100 µM
melting point: 204 to 205 °C
IC50 [5]: > 100 µM
IC50 [6]: 6.74 ± 0.64 µM

CCN(CC)c1ccc2cc(C(Cl)=CC=O)c(=O)oc2c1 [Compound 5c, 3-Chloro-3-(7-(diethylamino)-2-oxo-2H-chromen-3-yl)acrylaldehyde]
IC50 [1]: 52.65 ± 0.07 µM
IC50 [2]: 7.51 ± 0.02 µM
IC50 [3]: 4.85 ± 0.19 µM
IC50 [4]: 6.42 ± 0.51 µM
melting point: 206 to 208 °C
IC50 [5]: 3.15 ± 0.09 µM
IC50 [6]: 18.99 ± 0.18 µM

O=CC=C(Cl)c1cc2ccc(Br)cc2oc1=O [Compound 5d, 3-(7-Bromo-2-oxo-2H-chromen-3-yl)-3-chloroacrylaldehyde]
IC50 [1]: 42.97 ± 0.04 µM
more potent than 5a and 5-FU ([2]; A549 cells, relative to 5a and 5-FU): 10 fold
IC50 [2]: 0.7 ± 0.05 µM
IC50 [3]: 1.36 ± 0.43 µM
IC50 [4]: 10.52 ± 0.02 µM
melting point: 182 to 183 °C
IC50 [5]: 1.12 ± 0.03 µM
IC50 [6]: 4.23 ± 0.15 µM

O=CC=C(Cl)c1cc2cc(O)ccc2oc1=O [Compound 5e, 3-Chloro-3-(6-hydroxy-2-oxo-2H-chromen-3-yl)acrylaldehyde]
IC50 [1]: 14.11 ± 0.04 µM
IC50 [2]: 6.67 ± 0.01 µM
IC50 [3]: > 100 µM
IC50 [4]: 34.84 ± 0.11 µM
melting point: 250 to 252 °C
IC50 [5]: 3.23 ± 0.3 µM
IC50 [6]: 8.71 ± 0.31 µM

Cc1ccc2oc(=O)c(C(Cl)=CC=O)cc2c1 [Compound 5f, 3-Chloro-3-(6-methyl-2-oxo-2H-chromen-3-yl)acrylaldehyde]
IC50 [1]: 25.01 ± 0.03 µM
IC50 [2]: 4.57 ± 0.01 µM
IC50 [3]: 3.82 ± 0.11 µM
IC50 [4]: 27.38 ± 0.24 µM
melting point: 179 to 181 °C
IC50 [5]: 2.22 ± 0.04 µM
IC50 [6]: 20.1 ± 0.32 µM

O=CC=C(Cl)c1cc2cc(Br)ccc2oc1=O [Compound 5g, 3-(6-Bromo-2-oxo-2H-chromen-3-yl)-3-chloroacrylaldehyde]
IC50 [1]: 66.36 ± 0.09 µM
IC50 [2]: 2.45 ± 0.01 µM
IC50 [3]: 13.4 ± 0.22 µM
IC50 [4]: 10.9 ± 0.02 µM
melting point: 199 to 201 °C
IC50 [5]: 0.87 ± 0.01 µM
IC50 [6]: 9.25 ± 0.1 µM

COc1ccc2cc(C(Cl)=CC=O)c(=O)oc2c1 [Compound 6a, 3-Chloro-3-(7-methoxy-2-oxo-2H-chromen-3-yl)acrylaldehyde]
IC50 [1]: 61.04 ± 0.03 µM
IC50 [2]: 2.78 ± 0.01 µM
IC50 [3]: > 100 µM
IC50 [4]: 10.09 ± 0.07 µM
melting point: 202 to 203 °C
IC50 [5]: 3.41 ± 0.4 µM
IC50 [6]: 12.4 ± 0.49 µM

CCOc1ccc2cc(C(Cl)=CC=O)c(=O)oc2c1 [Compound 6b, 3-Chloro-3-(7-ethoxy-2-oxo-2H-chromen-3-yl)acrylaldehyde]
IC50 [1]: > 100 µM
IC50 [2]: 11.34 ± 0.07 µM
IC50 [3]: 2.91 ± 0.17 µM
IC50 [4]: > 100 µM
melting point: 195 to 196 °C
IC50 [5]: > 100 µM
IC50 [6]: 23.29 ± 0.2 µM

CCCOc1ccc2cc(C(Cl)=CC=O)c(=O)oc2c1 [Compound 6c, 3-Chloro-3-(2-oxo-7-propoxy-2H-chromen-3-yl)acrylaldehyde]
IC50 [1]: 43.52 ± 0.03 µM
IC50 [2]: 6.28 ± 0.04 µM
IC50 [3]: > 100 µM
IC50 [4]: 53.92 ± 0.46 µM
melting point: 150 to 152 °C
IC50 [5]: 4.54 ± 0.11 µM
IC50 [6]: 1.73 ± 0.01 µM

CC(C)Oc1ccc2cc(C(Cl)=CC=O)c(=O)oc2c1 [Compound 6d, 3-Chloro-3-(7-isopropoxy-2-oxo-2H-chromen-3-yl)acrylaldehyde]
IC50 [1]: 33.27 ± 0.02 µM
IC50 [2]: 5.61 ± 0.01 µM
IC50 [3]: 22.7 ± 0.21 µM
IC50 [4]: 31.92 ± 0.07 µM
melting point: 149 to 151 °C
IC50 [5]: 4.28 ± 0.02 µM
IC50 [6]: 51.63 ± 0.13 µM

O=CC=C(Cl)c1cc2ccc(OCc3ccc([N+](=O)[O-])cc3)cc2oc1=O [Compound 6f, 3-Chloro-3-(7-((4-nitrobenzyl)oxy)-2-oxo-2H-chromen-3-yl)acrylaldehyde]
IC50 [1]: > 100 µM
IC50 [2]: > 100 µM
IC50 [3]: > 100 µM
IC50 [4]: > 100 µM
melting point: 250 to 252 °C
IC50 [5]: > 100 µM
IC50 [6]: > 100 µM

O=CC=C(Cl)c1cc2ccc(OCc3cccc(Br)c3)cc2oc1=O [Compound 6g, 3-(7-((3-Bromobenzyl)oxy)-2-oxo-2H-chromen-3-yl)-3-chloroacrylaldehyde]
IC50 [1]: > 100 µM
IC50 [2]: > 100 µM
IC50 [3]: > 100 µM
IC50 [4]: > 100 µM
melting point: 217 to 219 °C
IC50 [5]: > 100 µM
IC50 [6]: 5.13 ± 0.07 µM

COc1ccc2c(/C=C(\C)C(=O)c3cc(OC)c(OC)c([Se]C)c3)c[nH]c2c1 [compound J]
IC50 [7]: 0.008 to 0.035 µM
